Reference: patent US8669232B2, “Flavonol compounds, a bioactive extract/fraction from Ulmus wallichiana and its compounds for prevention for treatment of osteo-health related disorders” (Council of Scientific & Industrial Research, priority 2008, dated 2014)

Key:
[1] = test system: Ishikawa cells; experiment: In vitro estrogenicity / anti-estrogenicity (ALP induction); type: cell-based, human; conditions: 10^−11 to 10^−6 M, 72 h
Method: The expression of alkaline phosphatase is induced in Ishikawa cells in response to estrogen or estrogen like substances (Littlefield et al, Endocrinology. 1990 December; 127(6):2757-62.). Ishikawa cells were plated in 96-well flat bottomed microtiter plates at a density of 5000 cells/well and cultured in phenol red free DMEM containing 10% charcoal treated FCS. After 24 h of plating, cells were serum-starved for 12 h. Thereafter, for testing estrogenicity of compounds, the cells were treated with different concentrations (10^−6 to 10^−11 M) of pure compounds K058 and K012. Same concentrations of Raloxifene were also used for comparison. Estrogen concentration of 10^−8 M was used as a positive control. Compound treatments were performed for 72 h at 37° C. in CO2 incubator. Experiments were repeated 4 times. For the anti-estrogenicity studies, the compounds K012 and K058 at 10^−6 to 10^−11 M were added with 10^−8 M estrogen. After 72 h of incubation, the media was removed and the plates were washed twice with PBS and dried by tapping, gently. Freeze fracture of cells was achieved by placing the plates at −70° C. for 15, min followed by bringing to room temperature. The plates were then placed on ice and 50 μl of ice cold diethanolamine solution (5 mM P-nitrophenyl phosphate (PNP) and 0.25 mM MgCl2 in 1 M diethanolamine) was added to each well. The plates were then placed at 37° C. for 30 minutes for color (yellow) development is a function of ALP activity. Absorbance was measured at 405 nm.

[2] = test system: calvarial osteoblasts; experiment: Alkaline phosphatase activity assay in calvarial osteoblasts; type: cell-based, neonatal Sprague-Dawley rats
Method: (§1) Neonatal rat calvarial cell cultures are prepared as described previously (Chattopadhyay et al., Endocrinology 145:3451-62, 2004) using slight modification. Briefly, for calvarial osteoblast cultures, frontal and parietal bones from neonatal Sprague-Dawley rats (1-3 day old) were digested in 0.1% collagenase/0.1% dispase in α-MEM to obtain 5 sequential digests. The second through fifth digests are combined and grown to confluence at 37° C. and 5% CO2 in air in α-MEM, supplemented with 10% fetal bovine serum (FBS), 2 mM glutamine, 100 U/ml penicillin-streptomycin, non-essential amino acid solution and sodium pyruvate.
For alkaline phosphatase (ALP) assay, osteoblasts were plated in 96-well (2000 cells/well) plates in regular growth medium. Twenty-four hours later, when the cells formed a confluent monolayer, medium was replaced with α-MEM medium supplemented with 10% FBS, 10 mM β-glycerophosphate and 50 μg/ml ascorbic acid. Treatment was given with varying concentration of the test compound K012, K058, K068 and K100 at 1 nM and 100 nM concentration. Forty-eight hours after induction, ALP activity of the osteoblasts was determined as described by Akiyama et al (Exp Cell Res 235:362-369, 1997) with slight modifications. Briefly, cells were washed once with PBS and ALP activity was measured by adding ALP buffer (1 M diethanolamine, 0.5 mM MgCl2, 1 mg/ml PNPP, pH 9.0), incubating in 37° C., and absorbance (405 nm) was measured using a microplate spectrophotometer. Statistical significance was determined by paired two-tailed Student's t-tests.

[3] = test system: calvarial osteoblasts; experiment: In vitro mineralization of calvarial osteoblasts (alizarin red-S, von kossa); type: cell-based, neonatal Sprague-Dawley rats; conditions: for Von kossa staining (mineralized nodules) compared with controls (vehicle): 21 days culture
Method: as §1
Ability of cells to produce mineralized matrix is important with regard to development of materials for bone regeneration. Mineralization of extracellular matrix by osteoblasts was determined using alizarin red-S (AR-S) assay combined with cetylpyridinium chloride (CPC) extraction. (Stanford et al, J. Biol. Chem. 270:9420-9428; 1995.) Alizarin red is a dye that binds selectively to nascent calcium salts and is widely used for calcium mineral histochemistry. Cells were seeded onto a six well plate containing 10000 cells/well in culture medium supplemented with 10 mM β-glycerophosphate and 50 μg/ml ascorbic acid with test compounds K012, K058, K068 and K0100 at 1 nM and 100 nM concentration. Treatment was given for 21 days and after completion of the treatment samples were rinsed with PBS followed by fixation (4% HCHO for 20 min). Photomicrographs of the stained wells were taken. Subsequently, alizarin red-S stain was extracted using 10% (w/v) cetylpyridinium chloride (CPC) in […] sodium phosphate, pH 7.0, for 15 min at room temperature, and the resulting solutions were read on a Microplate reader with a test wavelength of 540 nm against a reference wavelength of 620 nm. Mineralization nodules were also seen by Von kossa staining procedure (A. M. Chou et al. Materials Science and Engineering C 20 (2002) 77-83.) After 21 days culture, cells in tissue culture wells were washed with PBS and immersed in 5% (w/v) silver nitrate solution for 45 min. After rinsing with distilled water, they were fixed in 5% (w/v) sodium bicarbonate formalin for 8 min. Finally, they were immersed in 5% (w/v) sodium thiosulphate solution for 5 min and washed thoroughly with water for 15 min and photomicrographs were taken.

[4] = test system: Bone marrow cells (BMCs); experiment: In vitro mineralization from mouse bone marrow; type: cell-based, balb/c mice; conditions: 1 nM and 100 nM, 21 days
Text: Adult balb/c mice were used in this study. Bone marrow cells (BMCs) were harvested from the femurs and tibias of the animals, as described elsewhere (Maniatopoulos et al. Cell Tissue Res 1988:254:317-30.; Ishaug et al., J Biomed Mater Res 1997; 36:17-28.). Briefly, bones were aseptically excised from the hind limbs of the mice following ether euthanasia. The soft tissue was removed, and the proximal end of the femur and distal end of the tibia were clipped off using sterile scissors, a hole was created in the knee joint end of each bone with an needle, and the marrow was flushed from the shaft with control medium (CM) which consisted of α-MEM supplemented with 10% fetal calf serum, 100 U/ml penicillin, 100 U/ml streptomycin (Sigma, Chemical Co., St. Louis, Mo., USA). The cells were suspended in this medium, and the cell suspensions from all bones were combined in a centrifuge tube. The suspension was spun down at 800 rpm for 5 min. Cells were counted by using a haemocytometer. The supernatant was aspirated, and the pellet was re-suspended in fresh CM and then seeded into 12-well plates. 200000 cells/well were cultured in 12-well plates and in a humidified atmosphere, with 5% CO2, at 37° C. in the same medium supplemented with 10 mM-β-glycerophosphate, 50 μg/ml L-ascorbic acid and 10^−8M dexamethasone with different concentration of the test compound. This medium was replaced every other day (John et al. Trends. Biomater. Artif. Organs 2002:16(1):28-33.; Connolly. Clin Orthop 1995:313: 8-18.; Gebhart and Lane. Acta Orthop Belg 1991:57(2):130-43.; Gurpinar et al. J Biomater Appl 2003; 18(1):25-33; Lan and Wang, Blood Substitutes. Biotechnol 2003; 31(1):59-68.). Treatments K012, K058, K068 and K0100 at 1 nM and 100 nM concentration were given for 21 days and after completion of the treatment samples were rinsed with PBS followed by fixation (4% HCHO for […]). Samples were then rinsed with nanopure water and stained for 10 min with 40 mM AR-S, pH 4.2, at room temperature. Photomicrographs of the stained wells were taken. Subsequently, alizarin red-S stain was extracted using 10% (w/v) CPC in […] sodium phosphate, pH 7.0, for […] at room temperature, and the resulting solutions were read on a Microplate reader with a test wavelength of 540 nm against a reference wavelength of 620 nm.

[5] = test system: 3T3-L1 preadipocyte cells; experiment: In vitro adipogenesis (oil red-O); type: cell-based, murine; conditions: for adipocyte differentiation (oil red-O): 1 μM, 100 nM and 1 nm, 8 days
Method: 3T3-L1 preadipocyte cells were cultured to confluency. Two days after the cells reached confluency was considered as day 0. At day 0, cells were treated with the induction media [10% calf serum/DMEM containing 1 μg/ml insulin, 1 μM dexamethasone and 500 μM isobutylmethylxanthine (IBMX). Two days after induction medium treatment (day 2), the cells were treated with insulin [10% calf serum/DMEM containing 1 μg/ml insulin. Full differentiation was usually achieved after 8 days from day 0. To test the effect of the test compound on the differentiation of 3T3-L1 preadipocytes to adipocytes, the test compounds K068 and K100 at 1 μM, 100 nM and 1 nm concentrations were used in different concentrations throughout differentiation (for 8 days starting from day 0). For assessment of adipogenesis the differentiated cells were fixed in 4% paraformaldehyde w/v for 20 min, washed with PBS and stained with 0.34% Oil Red 0 in 60% isopropanol for 15 minutes. Then it was washed with PBS thrice and stain was extracted with 80% isopropanol by keeping it at room temperature for 30 minutes on an orbital shaker. OD of the extracted dye was taken at 520 nm.

[6] = test system: 3T3-L1 preadipocytes; experiment: Semi-quantitative RT-PCR of adipogenic genes; type: cell-based, murine; conditions: 10^−7 & 10^−9M, 8 d
Method: RT-PCR was performed for assessing the expression of PPAR-γ (peroxisome proliferator-activated receptor) and adiponectin. The house keeping gene GAPDH was used as the internal control in this study. 3T3-L1 preadipocytes were cultured under differentiation condition to form adipocytes in the presence of K068 and K100 at 10^−6, 10^−7 and 10^−9 M concentrations for 8 days. Following the culture, cellular RNA was extracted and RT-PCR performed using a kit (Fermentas) according to manufacturer's instructions.

Row | osteoblast differentiation (summary of in vitro effects) [2] | SMILES | ALP levels (estrogenicity) [1] | osteoblast mineralization (summary of in vitro effects) [3] | Von kossa staining (mineralized nodules) compared with controls (vehicle) [3] | mineralization of bone marrow osteoblasts (alizarin red staining) [4] | anti-adipogenic activity in 3T3 L1 cell line (summary of in vitro effects) [5] | adipocyte differentiation (oil red-O) [5] | mRNA levels of PPAR-γ [6] | mRNA levels of adiponectin [6]
1 | – | O=C(c1ccc(OCCN2CCCCC2)cc1)c1c(-c2ccc(O)cc2)sc2cc(O)ccc12 [raloxifene, reference compound] | no response | – | – | – | – | – | – | –
2 | promoted | O=C1CC(c2ccc(O)cc2)Oc2cc(O)c(C3O[C@H](CO)[C@@H](O)[C@H](O)[C@H]3O)c(O)c21 (some centres unmarked) [K068, 6-Glucopyranosyl-4′,5,7-trihydroxyflavanone] | – | promoted | increased | stimulated | have anti-adipogenic activity | significantly inhibited | decreased | decreased
3 | promoted | O=C1c2c(cc(O)c([C@@H]3OC(CO)[C@@H](O)[C@H](O)C3O)c2O)O[C@@H](c2ccc(O)cc2)[C@@H]1O (stereo partly drawn) [K100, (2S,3S)-(+)-4′,5,7-trihydroxydihydroflavonol-6-C-β-D-glucopyranoside] | – | promoted | increased | stimulated | have anti-adipogenic activity | significantly inhibited | decreased | decreased
